According to paper PMC10387993, “New pyrimidine-N-β-D-glucosides: synthesis, biological evaluation, and molecular docking investigations” (Turkish Journal of Chemistry, 2023):
In brackets after ≈: the same amount, converted by molar mass. Where two headings read alike, the source gives them in different places.

Columns and labels:
Format in all cases: cell-based
[1] = test system: A549; assay: cells; details: Homo sapiens; for LC50 (concentration causing 50% net cell loss): A549, read-out: LC50; for GI50 / IC50 / IC (total growth inhibition): A549, MTT; for IC50: read-out: IC50; for IC (total growth inhibition): read-out: TGI
Method: (§1) The cell lines were cultured in a cell medium (Dulbecco’s modified eagle’s or RPMI 1640) enriched with 10% (v/v) fetal bovine serum and 2% (v/v) Penicillin-Streptomycin (10,000 U/mL). First, old medium was removed out of the flask when the cells reached approximately 80% confluence. Next, cells were taken from the flasks surface using trypsin-EDTA solution and then subjected to centrifugation. Following, the cell pellet was suspended with fresh media and was inoculated into wells.
(§2) A cell suspension containing approximately 1 × 10^4 cells in 100 μL was seeded into the wells of 96-well culture plates. […]. The final volume of the wells was set to 200 μL by medium. Cell proliferation assay was evaluated by MTT (yellow tetrazolium MTT (3-(4,5-dimethylthiazolyl-2)-2,5-diphenyltetrazolium bromide) methods. Briefly, an MTT stock solution (5 mg of MTT/mL of distilled water) was filtered and kept at −20 °C until use. The cells were exposed to an MTT reagent (consisting of one parts of MTT stock solutions and nine parts of fresh RPMI 1640 without phenol red) for 4 h to form MTT formazan dye followed by the dye dissolved in DMSO with Sorenson’s buffer for 30 min at room temperature and then the plate was measured at 560 nm, with 690 nm as a reference interval, using a microplate reader. Each experiment was repeated at least three times for each cell line.
(§3) IC50 value is a concentration that inhibits half of the cells in vitro. The half maximal inhibitory concentration (IC50) of the test and control compounds was calculated using XLfit5 or excel spreadsheet and represent in μM at 95% confidence intervals. The proliferation assay results were expressed as the percent inhibition according to the following formula: % Inhibition = [1 - (Absorbance of Treatments /Absorbance of DMSO) × 100]. Three dose response parameters (GI50, TGI, LC50) were calculated according to the following formulas using the absorbance measurements of time zero (Tz), control growth (C), and test growth in the presence of drug (Ti). Growth inhibition of 50% (GI50) was calculated from [(Ti-Tz)/(C-Tz)] × 100 = 50, which is the drug concentration resulting in a 50% reduction in the net growth increase in control cells during the drug incubation. The drug concentration resulting in total growth inhibition (TGI) was calculated from Ti = Tz. The LC50 indicating a net loss of cells following treatment was calculated from [(Ti-Tz)/Tz] × 100 = −50.

[2] = test system: Hep3B; assay: cells; details: Homo sapiens; for GI50 / IC50 / IC (total growth inhibition): MTT; for IC50: read-out: IC50; for IC (total growth inhibition): read-out: TGI; for LC50 (concentration causing 50% net cell loss relative to time zero): read-out: LC50
Method: as §1, §2, §3

[3] = test system: HT29; assay: cells; details: Homo sapiens; for LC50 (concentration giving 50% net cell loss relative to time zero): HT-29, read-out: LC50; for GI50 / IC50 / IC (total growth inhibition): HT-29, HT29, MTT; for IC50: read-out: IC50; for IC (total growth inhibition): read-out: TGI
Method: as §1, §2, §3

[4] = test system: MCF7; assay: cells; details: Homo sapiens; for LC50 (concentration causing 50% net cell loss relative to time zero): MCF7, read-out: LC50; for GI50 / IC50 / IC (total growth inhibition): MCF7, MTT; for IC50: read-out: IC50; for IC (total growth inhibition): read-out: TGI
Method: as §1, §2, §3

[5] = test system: C6 (Rat brain glioma); assay: cells; details: Rattus norvegicus; for LC50 (concentration giving 50% net cell loss relative to time zero): read-out: LC50; for GI50 / IC50 / IC (total growth inhibition): C6, MTT; for IC50: read-out: IC50; for IC (total growth inhibition): read-out: TGI
Method: as §1, §2, §3

[6] = test system: HeLa; assay: cells; details: Homo sapiens; for GI50 / IC50 / IC (total growth inhibition): MTT; for IC50: read-out: IC50; for IC (total growth inhibition): read-out: TGI; for LC50 (concentration causing 50% net cell loss): read-out: LC50
Method: as §1, §2, §3

[7] = test system: A. actinomycetemcomitans ATCC 33384; assay: Microdilution MIC assay; details: Aggregatibacter actinomycetemcomitans, ATCC33384; A. actinomycetemcomitans ATCC 33384, 24 h at 35 °C
Method: (§4) MIC values of the compounds against bacterial strains were determined on the basis of a microwell dilution method. […] […]. Growth of microorganisms was determined visually after incubation for 24 h at 35 °C. The lowest concentration at which there was no visible growth (turbidity) was taken as the MIC.

[8] = test system: S. aureus MSSA ATCC 29213; assay: Microdilution MIC assay; details: S. aureus MSSA ATCC 29213, 24 h at 35 °C
Method: as §4

[9] = test system: E. coli ATCC 25922; assay: Microdilution MIC assay; details: Escherichia coli, ATCC25922; E. coli ATCC 25922, 24 h at 35 °C
Method: as §4

[10] = test system: E. faecalis VRE ATCC 19433; assay: Microdilution MIC assay; details: Enterococcus faecalis; E. faecalis VRE ATCC 19433, 24 h at 35 °C
Method: as §4

[11] = test system: P. aeruginosa AGME ATCC 27853; assay: Microdilution MIC assay; details: Pseudomonas aeruginosa, ATCC27853; P. aeruginosa AGME ATCC 27853, 24 h at 35 °C
Method: as §4

[12] = test system: S. mutans ATCC 35668; assay: Microdilution MIC assay; details: S. mutans ATCC 35668, 24 h at 35 °C
Method: as §4

[13] = test system: E. coli ESBL ATCC 35218; assay: Microdilution MIC assay; details: Escherichia coli, ATCC35218; E. coli ESBL ATCC 35218, 24 h at 35 °C
Method: as §4

[14] = test system: S. aureus MRSA ATCC 46300; assay: Microdilution MIC assay; details: Staphylococcus aureus; S. aureus MRSA ATCC 46300, 24 h at 35 °C; read-out: MIC
Method: as §4

[15] = test system: S. gordonii NCTC 7870; assay: Microdilution MIC assay; details: Streptococcus gordonii, NCTC7870; S. gordonii NCTC 7870, 24 h at 35 °C
Method: as §4

[16] = LDH cytotoxic activity assay, C6; details: rat, C6 glioma cells; for cytotoxicity at 24 h, 25 μg/mL: C6, 25 μg/mL; for cytotoxicity at 24 h, 50 μg/mL: C6, 50 μg/mL; for cytotoxicity at 24 h, 75 μg/mL: C6, 75 μg/mL; for cytotoxicity at 24 h, 100 μg/mL: C6, 100 μg/mL
Method: as §1
Approximately 5 × 10^3 cells in 100 μL were placed into 96-well plates as triplicates and treated with 25, 50, 75, and 100 μg/mL concentrations of test compounds at 37 °C with 5% CO2 for 24 h. LDH activity was obtained by determining absorbance at 492–630 nm using a microplate reader.

[17] = Staphylococcus aureus, 24 h, read-out: MIC
[18] = Streptococcus mutans, ATCC35668, 24 h, read-out: MIC

SMILES	LC50 (concentration causing 50% net cell loss) [1] [µg/mL]	GI50 [1] [µg/mL]	IC50 [1] [µg/mL]	IC (total growth inhibition) [1] [µg/mL]	GI50 [2] [µg/mL]	IC50 [2] [µg/mL]	IC (total growth inhibition) [2] [µg/mL]	LC50 (concentration causing 50% net cell loss relative to time zero) [2] [µg/mL]	LC50 (concentration giving 50% net cell loss relative to time zero) [3] [µg/mL]	GI50 [3] [µg/mL]	IC50 [3] [µg/mL]	IC (total growth inhibition) [3] [µg/mL]	LC50 (concentration causing 50% net cell loss relative to time zero) [4] [µg/mL]	GI50 [4] [µg/mL]	IC50 [4] [µg/mL]	IC (total growth inhibition) [4] [µg/mL]	LC50 (concentration giving 50% net cell loss relative to time zero) [5] [µg/mL]	GI50 [5] [µg/mL]	IC50 [5] [µg/mL]	IC (total growth inhibition) [5] [µg/mL]	other results
CC(=O)OC[C@H]1O[C@@H](Nc2nc(-c3ccc(C)cc3)cc(-c3ccccn3)n2)[C@H](OC(C)=O)[C@@H](OC(C)=O)[C@@H]1OC(C)=O [Compound 16, 2,3,4,6-tetra-O-acetyl-N-[4-(4-methylphenyl)-6-pyridin-2-ylpyrimidin-2-yl]-β-D-glucopyranosylamine]	> 500	23.8 (≈ 40.1 µM)	> 500	> 500	1.99 (≈ 3.36 µM)	7.18 (≈ 12.1 µM)	7.33	326 (≈ 550 µM)	122 (≈ 205 µM)	1.47 (≈ 2.48 µM)	3.26 (≈ 5.5 µM)	3.88	495 (≈ 835 µM)	1.41 (≈ 2.38 µM)	4.12 (≈ 6.95 µM)	4.29	22.9 (≈ 38.6 µM)	1.4 (≈ 2.36 µM)	4.38 (≈ 7.39 µM)	2.8	GI50 [6]: 1.49 µg/mL (≈ 2.51 µM); IC50 [6]: 9.13 µg/mL (≈ 15.4 µM); IC (total growth inhibition) [6]: 3.28 µg/mL; LC50 (concentration causing 50% net cell loss) [6]: 34.1 µg/mL (≈ 57.6 µM); MIC [7]: > 1000 µg/mL; MIC [8, 17]: 1000 µg/mL (≈ 1690 µM); MIC [9]: > 1000 µg/mL; MIC [10]: 1000 µg/mL (≈ 1690 µM); MIC [11]: > 1000 µg/mL; MIC [12]: 125 µg/mL (≈ 211 µM); MIC [12, 18]: 62.5 to 125 µg/mL (≈ 105 to 211 µM); MIC [13]: > 1000 µg/mL; MIC [14]: > 1000 µg/mL; MIC [15]: > 1000 µg/mL; cytotoxicity at 24 h, 25 μg/mL [16]: 17.1%; cytotoxicity at 24 h, 50 μg/mL [16]: 28.9%; cytotoxicity at 24 h, 75 μg/mL [16]: 63.2%; cytotoxicity at 24 h, 100 μg/mL [16]: 84.7%
CC(=O)OC[C@H]1O[C@@H](Nc2nc(-c3ccc(C)cc3)cc(-c3cccnc3)n2)[C@H](OC(C)=O)[C@@H](OC(C)=O)[C@@H]1OC(C)=O [Compound 17, 2,3,4,6-tetra-O-acetyl-N-[4-(4-methylphenyl)-6-pyridin-3-ylpyrimidin-2-yl]-β-D-glucopyranosylamine]	> 500	7.85 (≈ 13.2 µM)	> 500	> 500	3.86 (≈ 6.51 µM)	> 500	> 500	> 500	> 500	3.09 (≈ 5.21 µM)	> 500	> 500	> 500	2.19 (≈ 3.7 µM)	> 500	> 500	> 500	> 500	> 500	> 500	GI50 [6]: > 500 µg/mL; IC50 [6]: > 500 µg/mL; IC (total growth inhibition) [6]: > 500 µg/mL; LC50 (concentration causing 50% net cell loss) [6]: > 500 µg/mL; MIC [7]: > 1000 µg/mL; MIC [8]: 125 µg/mL (≈ 211 µM); MIC [8, 17]: 62.5 to 125 µg/mL (≈ 105 to 211 µM); MIC [9]: > 1000 µg/mL; MIC [10]: 1000 µg/mL (≈ 1690 µM); MIC [11]: > 1000 µg/mL; MIC [12]: 125 µg/mL (≈ 211 µM); MIC [12, 18]: 62.5 to 125 µg/mL (≈ 105 to 211 µM); MIC [13]: > 1000 µg/mL; MIC [14]: 1000 µg/mL (≈ 1690 µM); MIC [15]: > 1000 µg/mL; cytotoxicity at 24 h, 25 μg/mL [16]: 32%; cytotoxicity at 24 h, 50 μg/mL [16]: 44.6%; cytotoxicity at 24 h, 75 μg/mL [16]: 67.6%; cytotoxicity at 24 h, 100 μg/mL [16]: 81.8%
